pIC50: −log10 of the molar value.
target: human Nav1.7 (Homo sapiens (Human), UniProt Q15858); assay: Nav 1.7 In Vitro PX Assay (PatchXpress whole cell voltage clamp); format: cell-based; details: in-vitro Nav 1.7 PX data
Procedure: HEK 293 cells stably transfected with human Nav1.7 were recorded in whole cell voltage clamp mode with the PatchXpress automated electrophysiology system (Molecular Devices, LLC, Sunnyvale, Calif.). Compound effects were measured on a partially inactivated state of the sodium channel. Cells were clamped to a holding potential yielding 20 to 50% inactivation. To elicit sodium current, channels were activated by pulsing to −10 mV for 20 msec. This voltage protocol was repeated at a rate of 0.1 Hz throughout the experiment. A single concentration of test compound was applied to cells for a duration of 3 minutes. Peak sodium current was measured at the end of the compound addition period to determine percent inhibition. Three to five cells were tested per concentration, and IC50 curves were fitted to percent inhibition as a function of concentration.

Chain of human Nav1.7 (Q15858 whole entry): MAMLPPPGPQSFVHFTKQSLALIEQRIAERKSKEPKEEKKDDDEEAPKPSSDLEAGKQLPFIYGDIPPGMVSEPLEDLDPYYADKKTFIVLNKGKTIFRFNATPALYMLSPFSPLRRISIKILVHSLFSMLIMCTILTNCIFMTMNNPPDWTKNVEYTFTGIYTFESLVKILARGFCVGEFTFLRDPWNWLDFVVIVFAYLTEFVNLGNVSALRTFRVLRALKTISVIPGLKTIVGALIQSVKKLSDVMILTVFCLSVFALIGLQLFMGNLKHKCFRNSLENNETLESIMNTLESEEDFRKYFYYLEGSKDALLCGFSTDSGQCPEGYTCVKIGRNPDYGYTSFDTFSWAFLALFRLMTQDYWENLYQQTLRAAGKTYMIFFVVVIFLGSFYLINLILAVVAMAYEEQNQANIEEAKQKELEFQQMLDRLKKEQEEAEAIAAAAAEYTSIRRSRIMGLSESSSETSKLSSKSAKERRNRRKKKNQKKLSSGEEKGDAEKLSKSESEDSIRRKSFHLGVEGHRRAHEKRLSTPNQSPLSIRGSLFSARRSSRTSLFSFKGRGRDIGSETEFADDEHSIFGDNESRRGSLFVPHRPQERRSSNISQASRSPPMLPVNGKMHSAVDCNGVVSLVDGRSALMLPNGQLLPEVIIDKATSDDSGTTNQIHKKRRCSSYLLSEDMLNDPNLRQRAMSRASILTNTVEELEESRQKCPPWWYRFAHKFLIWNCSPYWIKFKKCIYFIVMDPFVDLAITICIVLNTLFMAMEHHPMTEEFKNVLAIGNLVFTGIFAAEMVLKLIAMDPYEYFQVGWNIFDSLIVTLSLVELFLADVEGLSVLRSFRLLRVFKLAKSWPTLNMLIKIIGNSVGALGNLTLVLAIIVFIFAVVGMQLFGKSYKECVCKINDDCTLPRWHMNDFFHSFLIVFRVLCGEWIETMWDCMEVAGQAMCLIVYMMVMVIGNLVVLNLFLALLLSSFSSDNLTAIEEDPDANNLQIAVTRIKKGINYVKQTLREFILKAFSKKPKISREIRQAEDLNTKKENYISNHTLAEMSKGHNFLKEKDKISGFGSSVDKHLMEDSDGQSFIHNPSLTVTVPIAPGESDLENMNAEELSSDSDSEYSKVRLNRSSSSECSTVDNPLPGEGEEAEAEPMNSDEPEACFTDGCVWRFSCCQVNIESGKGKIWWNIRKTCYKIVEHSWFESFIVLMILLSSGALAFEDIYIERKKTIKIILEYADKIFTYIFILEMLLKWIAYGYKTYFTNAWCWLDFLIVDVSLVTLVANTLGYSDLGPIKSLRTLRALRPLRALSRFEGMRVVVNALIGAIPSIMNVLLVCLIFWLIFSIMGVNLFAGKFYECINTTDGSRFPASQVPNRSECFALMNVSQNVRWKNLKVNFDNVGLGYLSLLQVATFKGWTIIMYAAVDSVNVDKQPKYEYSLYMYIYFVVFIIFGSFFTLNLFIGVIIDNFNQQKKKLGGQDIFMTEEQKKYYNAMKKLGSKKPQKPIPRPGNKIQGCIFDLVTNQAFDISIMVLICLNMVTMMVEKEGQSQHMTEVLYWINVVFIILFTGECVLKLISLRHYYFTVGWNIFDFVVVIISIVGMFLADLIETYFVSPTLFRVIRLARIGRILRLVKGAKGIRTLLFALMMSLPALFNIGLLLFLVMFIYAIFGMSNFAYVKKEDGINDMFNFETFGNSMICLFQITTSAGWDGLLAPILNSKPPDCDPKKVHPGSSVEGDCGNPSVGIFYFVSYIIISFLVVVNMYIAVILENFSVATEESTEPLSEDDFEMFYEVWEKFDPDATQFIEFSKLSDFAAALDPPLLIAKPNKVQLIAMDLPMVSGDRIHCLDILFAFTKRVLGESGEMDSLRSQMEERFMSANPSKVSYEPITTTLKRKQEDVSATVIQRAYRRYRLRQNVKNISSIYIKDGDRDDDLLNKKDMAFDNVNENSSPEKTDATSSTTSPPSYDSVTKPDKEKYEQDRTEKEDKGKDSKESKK

SMILES | pIC50
CNC(=O)N(c1ccc(S(=O)(=O)Nc2ccon2)cn1)c1cc(Cl)c(-c2cc(OC)cc(OC(F)(F)F)c2)cc1OC [Example 1-51, 6-((2-chloro-3′,5-dimethoxy-5′-(trifluoromethoxy)-4-biphenylyl)(methylcarbamoyl)amino)-N-3-isoxazolyl-3-pyridinesulfonamide] | 8.05
CNC(=O)N(c1ccc(S(=O)(=O)Nc2ccon2)cn1)c1cc(F)c(-c2cccc(C(F)(F)F)c2)cc1OC [Example 1-4, 6-((2-fluoro-5-methoxy-3′-(trifluoromethyl)-4-biphenylyl)(methylcarbamoyl)amino)-N-3-isoxazolyl-3-pyridinesulfonamide] | 7.48
CNC(=O)N(c1ccc(S(=O)(=O)Nc2ccncn2)cn1)c1cc(Cl)c(-c2ccc(F)c(OCC(F)(F)F)c2)cc1OC [Example 3-6, 6-((2-chloro-4′-fluoro-5-methoxy-3′-(2,2,2-trifluoroethoxy)-4-biphenylyl)(methylcarbamoyl)amino)-N-4-pyrimidinyl-3-pyridinesulfonamide] | 7.29
CNC(=O)N(c1ccc(S(=O)(=O)Nc2ncccn2)cn1)c1ccc(-c2ccc(F)c(OC(F)(F)F)c2)cc1OC [Example 2-7, 6-((4′-fluoro-3-methoxy-3′-(trifluoromethoxy)-4-biphenylyl)(methylcarbamoyl)amino)-N-2-pyrimidinyl-3-pyridinesulfonamide] | 8.40
CNC(=O)N(c1ccc(S(=O)(=O)Nc2ccon2)cn1)c1cc(F)c(-c2ccc(F)c(C)c2)cc1OC [Example 1-16, 6-((2,4′-difluoro-5-methoxy-3′-methyl-4-biphenylyl)(methylcarbamoyl)amino)-N-3-isoxazolyl-3-pyridinesulfonamide] | 7.21
CNC(=O)N(c1ccc(S(=O)(=O)Nc2ccon2)cn1)c1cc(Cl)c(-c2ccc(F)c(OC(F)(F)F)c2)cc1OC [Example 1-69, 6-((2-chloro-4′-fluoro-5-methoxy-3′-(trifluoromethoxy)-4-biphenylyl)(methylcarbamoyl)amino)-N-3-isoxazolyl-3-pyridinesulfonamide] | 8.22
CNC(=O)N(c1ccc(S(=O)(=O)Nc2cccnn2)cn1)c1cc(F)c(-c2cccc(C(F)(F)F)c2)cc1OC [Example 1-3, 6-((2-fluoro-5-methoxy-3′-(trifluoromethyl)-4-biphenylyl)(methylcarbamoyl)amino)-N-3-pyridazinyl-3-pyridinesulfonamide] | 7.40
CNC(=O)N(c1ccc(S(=O)(=O)Nc2ccon2)cn1)c1cc(Cl)c(-c2cc(Cl)ccc2C)cc1OC [Example 1-34, 6-((2,5′-dichloro-5-methoxy-2′-methyl-4-biphenylyl)(methylcarbamoyl)amino)-N-3-isoxazolyl-3-pyridinesulfonamide] | 7.57
CNC(=O)N(c1ccc(S(=O)(=O)Nc2ccon2)cn1)c1cc(Cl)c(-c2ccc(F)c(OCC(F)(F)F)c2)cc1OC [Example 1-57, 6-((2-chloro-4′-fluoro-5-methoxy-3′-(2,2,2-trifluoroethoxy)-4-biphenylyl)(methylcarbamoyl)amino)-N-3-isoxazolyl-3-pyridinesulfonamide] | 7.62
CNC(=O)N(c1ccc(S(=O)(=O)Nc2ncccn2)cn1)c1cc(F)c(-c2ccc(F)c(Cl)c2)cc1OC [Example 2-1, 6-((3′-chloro-2,4′-difluoro-5-methoxy-4-biphenylyl)(methylcarbamoyl)amino)-N-2-pyrimidinyl-3-pyridinesulfonamide] | 7.74
CNC(=O)N(c1ccc(S(=O)(=O)Nc2ccon2)cn1)c1cc(Cl)c(-c2cc(Cl)cc(OC)c2)cc1OC [Example 1-32, 6-((2,3′-dichloro-5,5′-dimethoxy-4-biphenylyl)(methylcarbamoyl)amino)-N-3-isoxazolyl-3-pyridinesulfonamide] | 7.85
CNC(=O)N(c1ccc(S(=O)(=O)Nc2cccnn2)cn1)c1cc(F)c(-c2ccc(F)c(OC(F)(F)F)c2)cc1OC [Example 3-13, 6-((2,4′-difluoro-5-methoxy-3′-(trifluoromethoxy)-4-biphenylyl)(methylcarbamoyl)amino)-N-3-pyridazinyl-3-pyridinesulfonamide] | 8.15
CNC(=O)N(c1ccc(S(=O)(=O)Nc2ncccn2)cn1)c1cc(Cl)c(-c2ccc(F)c(F)c2)cc1OC [Example 1-76, 6-((2-chloro-3′,4′-difluoro-5-methoxy-4-biphenylyl)(methylcarbamoyl)amino)-N-2-pyrimidinyl-3-pyridinesulfonamide] | 6.94
CNC(=O)N(c1ccc(S(=O)(=O)Nc2ccon2)cn1)c1cc(F)c(-c2ccc(Cl)c(Cl)c2)cc1OC [Example 1-10, 6-((3′,4′-dichloro-2-fluoro-5-methoxy-4-biphenylyl)(methylcarbamoyl)amino)-N-3-isoxazolyl-3-pyridinesulfonamide] | 8.05
CNC(=O)N(c1ccc(S(=O)(=O)Nc2ccon2)cn1)c1ccc(-c2cc(F)cc(Cl)c2)cc1OC [Example 1-74, 6-((3′-chloro-5′-fluoro-3-methoxy-4-biphenylyl)(methylcarbamoyl)amino)-N-3-isoxazolyl-3-pyridinesulfonamide] | 7.08
CNC(=O)N(c1ccc(S(=O)(=O)Nc2ccon2)cn1)c1cc(Cl)c(-c2cc(OC)cc(OC)c2)cc1OC [Example 1-64, 6-((2-chloro-3′,5,5′-trimethoxy-4-biphenylyl)(methylcarbamoyl)amino)-N-3-isoxazolyl-3-pyridinesulfonamide] | 7.11
CNC(=O)N(c1ccc(S(=O)(=O)Nc2ncccn2)cn1)c1cc(F)c(-c2ccc(Cl)c(Cl)c2)cc1OC [Example 1-83, 6-((3′,4′-dichloro-2-fluoro-5-methoxy-4-biphenylyl)(methylcarbamoyl)amino)-N-2-pyrimidinyl-3-pyridinesulfonamide] | 7.49
CNC(=O)N(c1ccc(S(=O)(=O)Nc2ccon2)cn1)c1cc(Cl)c(-c2cccc(OC(F)F)c2)cc1OC [Example 1-47, 6-((2-chloro-3′-(difluoromethoxy)-5-methoxy-4-biphenylyl)(methylcarbamoyl)amino)-N-3-isoxazolyl-3-pyridinesulfonamide] | 7.14

The remaining compounds from weak to strong by pIC50, led by results:

pIC50 | SMILES
6.82 | CNC(=O)N(c1ccc(S(=O)(=O)Nc2ccon2)cn1)c1cc(F)c(-c2cc(OC)c(F)c(OC)c2)cc1OC [Example 1-23, 6-((2,4′-difluoro-3′,5,5′-trimethoxy-4-biphenylyl)(methylcarbamoyl)amino)-N-3-isoxazolyl-3-pyridinesulfonamide]
6.88 | CNC(=O)N(c1ccc(S(=O)(=O)Nc2ccon2)cn1)c1cc(Cl)c(-c2ccnc(C(F)(F)F)c2)cc1OC [Example 1-43, 6-((5-chloro-2-methoxy-4-(2-(trifluoromethyl)-4-pyridinyl)phenyl)(methylcarbamoyl)amino)-N-3-isoxazolyl-3-pyridinesulfonamide]
7.00 | CNC(=O)N(c1ccc(S(=O)(=O)Nc2ccon2)cn1)c1ccc(-c2cc(Cl)cc(OC)c2)cc1OC [Example 1-72, 6-((3′-chloro-3,5′-dimethoxy-4-biphenylyl)(methylcarbamoyl)amino)-N-3-isoxazolyl-3-pyridinesulfonamide]
7.15 | CNC(=O)N(c1ccc(S(=O)(=O)Nc2ncccn2)cn1)c1cc(Cl)c(-c2ccc(Cl)c(OC)c2)cc1OC [Example 1-77, 6-((2,4′-dichloro-3′,5-dimethoxy-4-biphenylyl)(methylcarbamoyl)amino)-N-2-pyrimidinyl-3-pyridinesulfonamide]
7.19 | CNC(=O)N(c1ccc(S(=O)(=O)Nc2ccon2)cn1)c1cc(Cl)c(-c2ccc(C(F)(F)F)cc2)cc1OC [Example 1-45, 6-((2-chloro-5-methoxy-4′-(trifluoromethyl)-4-biphenylyl)(methylcarbamoyl)amino)-N-3-isoxazolyl-3-pyridinesulfonamide]
7.20 | CNC(=O)N(c1ccc(S(=O)(=O)Nc2nocc2C)cn1)c1cc(F)c(-c2ccc(F)c(OC(F)(F)F)c2)cc1OC [Example 2-12, 6-(1-(2,4′-difluoro-5-methoxy-3′-(trifluoromethoxy)-[1,1′-biphenyl]-4-yl)-3-methylureido)-N-(4-methylisoxazol-3-yl)pyridine-3-sulfonamide]
7.28 | CNC(=O)N(c1ccc(S(=O)(=O)Nc2ccon2)cn1)c1cc(Cl)c(-c2ccc(Cl)c(C#N)c2)cc1OC [Example 1-54, 6-((2,4′-dichloro-3′-cyano-5-methoxy-4-biphenylyl)(methylcarbamoyl)amino)-N-3-isoxazolyl-3-pyridinesulfonamide]
7.31 | CNC(=O)N(c1ccc(S(=O)(=O)Nc2ccon2)cn1)c1cc(Cl)c(-c2cc(C)c(F)c(OC)c2)cc1OC [Example 1-50, 6-((2-chloro-4′-fluoro-3′,5-dimethoxy-5′-methyl-4-biphenylyl)(methylcarbamoyl)amino)-N-3-isoxazolyl-3-pyridinesulfonamide]
7.34 | CNC(=O)N(c1ccc(S(=O)(=O)Nc2ccon2)cn1)c1cc(F)c(-c2cccc(C3CC3)c2)cc1OC [Example 1-13, 6-((3′-cyclopropyl-2-fluoro-5-methoxy-4-biphenylyl)(methylcarbamoyl)amino)-N-3-isoxazolyl-3-pyridinesulfonamide]
7.35 | CNC(=O)N(c1ccc(S(=O)(=O)Nc2ncccn2)cn1)c1cc(F)c(-c2ccc(Cl)c(C(F)(F)F)c2)cc1OC [Example 1-89, 6-((4′-chloro-2-fluoro-5-methoxy-3′-(trifluoromethyl)-4-biphenylyl)(methylcarbamoyl)amino)-N-2-pyrimidinyl-3-pyridinesulfonamide]
7.77 | CNC(=O)N(c1ccc(S(=O)(=O)Nc2ccon2)cn1)c1cc(Cl)c(-c2cc(C(F)(F)F)ccc2F)cc1OC [Example 1-55, 6-((2-chloro-2′-fluoro-5-methoxy-5′-(trifluoromethyl)-4-biphenylyl)(methylcarbamoyl)amino)-N-3-isoxazolyl-3-pyridinesulfonamide]

— patent US10668067B2, “Pyridine sulfonamides” (AMGEN INC., priority 2016, dated 2020)
